These results are taken from patent publication US8541193B2, “Cationic anti-microbial peptides and methods of use thereof” (Systagenix Wound Management (US), Inc., priority 2003, dated 2013).

Where no end group is shown, it is not given here.

Test [1] relates to S. pyogenes. As to the kind of experiment: Fluorimetric (edans/dabcyl) protease detection assay with bacterial culture or supernatant in buffer. Type of test: biochemical. Here is the method: (§1) The peptide substrates used here were labeled with the fluorescent probe edans (5-((2-aminoethyl)amino)naphthalene-1-sulphonic acid) and the quencher dye molecule dabcyl((4-(4-(dimethylamino)phenyl)azo)benzoic acid).
(§2) The bacteria were grown in an incubator overnight at 37° C. in 5 ml BHI (Brain Heart Infusion) media. Each of the resulting cultures was split into two samples. One was used as is, and the other was spun down and the supernatant was collected. The assays were run in 20 mM tris buffer (pH 7.4) with 150 mM NaCl added. The reaction was carried out with 7 μl of culture or supernatant and 3 μl peptide substrate (5 mg/ml in water) in 100 μl total volume at 37 C. The reaction was followed on a fluorimetric plate reader using an excitation wavelength of 355 nm and an emission wavelength of 485 nm.
(§3) The first set of experiments was performed by addition of the bacterial culture (media and cells) directly into the assay solution. If the protease is attached to the cell membrane it would not be expected to be found secreted into the media. Thus, the presence of cells would be necessary.
(§4) Bacterial cells used in this assay were grown to stationary phase in Brain Heart Infusion (BHI) medium. Briefly, 7 μl of bacterial culture was incubated with 3 μl of LL 1 peptide substrate and […] of […]). The reaction was followed on a 96 well microtiter plate reader using an excitation an emission wavelength of 355 nm and 538 nm respectively at 37° C. The reaction was monitored for a period of 1 hr. and plotted using the KALEIDAGRAPH software. Buffer, 20 mM Tris buffer (pH 7.4) with 150 mM NaCl.
(§5) The assay was repeated using identical conditions with the peptide LL2.
(§6) Bacterial cells used in this assay were grown to stationary phase in Brain Heart Infusion (BHI) medium. The assay was performed as previously described.

Test [2] concerns Pseudomonas. The description is as above. The class given is biochemical. How it is done:
as §1, §2, §3, §4, §5, §6

In test [3] the test system is Serratia. Briefly: Fluorimetric (edans/dabcyl) protease detection assay with bacterial culture in buffer. The class given is biochemical. The note with it: Serratia bacterial culture (media and cells), 37 C, 1 hr. How it is done:
as §1, §2
The first set of experiments was performed by addition of the bacterial culture (media and cells) directly into the assay solution. If the protease is attached to the cell membrane it would not be expected to be found secreted into the media. […]
Bacterial cells used in this assay were grown to stationary phase in Brain Heart Infusion (BHI) medium. […] The reaction was followed on a 96 well microtiter plate reader using an excitation an emission wavelength of 355 nm and 538 nm respectively at 37° C. The reaction was monitored for a period of 1 hr. and plotted using the KALEIDAGRAPH software. […]

In test [4] the test system is S. pyogenes. Briefly: Porcine wound fluid protease assay. The class given is biochemical. The note with it: S. pyogenes bacterial supernatant in porcine wound fluid. How it is done:
(§7) In order to test for cross reactivity in a wound, the assays were performed under physiologically relevant conditions. The assay for LL1 and LL2 were tested using porcine wound fluid extract in place of reaction buffer.
(§8) Immediately after surgery to create partial thickness wounds for the sensor study a gauze dressing was placed on the wound. After a time the dressing was removed, bagged, and placed in a freezer at −80 C. Absorbed wound fluid was recovered from the dressing by incubation in 10 mls buffer (0.1M Tris-HCl, pH 7.4 with 0.1% TRITON X-100® non-ionic surfactant (Octylphenol ethylene oxide condensate; Sigma Aldrich, St. Louis, Mo.). The dressing was incubated on both sides for 2 hours at room temperature and squeezed out. The fluid obtained was aliquoted out and frozen at −20 C.
(§9) The bacteria were grown in an incubator overnight at 37° C. in 5 ml BHI (Brain Heart Infusion) media. Each of the resulting cultures was spun down and the supernatant was collected. The assays were run in freshly thawed wound fluid. The reaction was carried out with 7 μl of culture or supernatant and 3 μl peptide substrate (5 mg/ml in water) in 100 μl total volume at 37 C. The reaction was followed on a fluorimetric plate reader using an excitation wavelength of 355 nm and an emission wavelength of 485 nm.
(§10) The protease assay was run using the LL2 peptide previously identified as a substrate for S. pyogenes and Pseudomonas.
(§11) Bacterial cells used in this assay were grown to stationary phase in Brain Heart Infusion […] medium. Briefly, 5 μl of bacterial culture was incubated with 3 μl of LL2 peptide substrate and 92 μl of sterile wound fluid. The reaction was followed on a 96 well microtiter plate reader using an excitation an emission wavelength of 355 nm and 538 nm respectively at 37° C. The reaction was monitored for a period of 1 h and plotted using the KALEIDAGRAPH software.

The test system of test [5] is Pseudomonas. Briefly: Porcine wound fluid protease assay. Type of test: biochemical. How it is done: as §7, §8, §9, §10, §11
Test [6] deals with proteinases secreted by Enterococcus faecalis. The note with it: in vitro; cited from earlier work.
In test [7] the test system is proteinases secreted by Proteus mirabilis. The note with it: in vitro; cited from earlier work.
Test [8] deals with proteinases secreted by Streptococcus pyogenes. The settings on record: in vitro; cited from earlier work.
In test [9] the test system is proteinases secreted by Pseudomonas aeruginosa. The settings on record: in vitro; cited from earlier work.
Setting [10] is: S. pyogenes bacterial culture (media and cells), buffer, 37 C, 1 hr.
The mark [11] stands for this setting: Pseudomonas bacterial culture (media and cells), buffer, 37 C, 1 hr.
[12] abbreviates: Pseudomonas bacterial supernatant, compared with culture with cells.

For “LL1: peptide substrate, variant of LL-37 encompassing its cleavage sites, labeled with fluorescent probe edans and quencher dabcyl (FIG. 1B) (KEKIGKEFKRIVQE; also: labeled with edans and dabcyl)”, the “protease activity on peptide substrate (fluorescence)” value is listed as “Some protease activity” in test [1] (setting [10]); “similar” in [1] (S. pyogenes bacterial supernatant, compared with culture with cells); “Some protease activity” in [2] (setting [11]); “reduced” in test [2] (setting [12]); “a small amount of activity” in test [3].

As for “LL2: peptide substrate, variant of LL-37 encompassing its cleavage sites, labeled with fluorescent probe edans and quencher dabcyl (FIG. 1C) (KVQRIKDFLRNLVE; also: labeled with edans and dabcyl)”, the “protease activity on peptide substrate (fluorescence)” value in test [4] is recorded as “same results”; in test [5] (Pseudomonas bacterial culture in sterile porcine wound fluid, 37 C, 1 h), “did not have any activity above the background”; in test [5] (Pseudomonas bacterial supernatant in porcine wound fluid), “same results”; in [1] (setting [10]), “overall reactivity appears to be reduced somewhat”; in test [2] (setting [11]), “overall reactivity appears to be reduced somewhat”; in [2] (setting [12]), “reduced”. For the same substance, the “specificity of peptide substrate” value in test [1] (FIG. 3 legend) is on record as “specific for S. pyogenes”.

For the substance “LLGDFFRKSKEKIGKE FKRIVQRIKDFLRNLVPRTES [LL-37]”, the “degradation of peptide by secreted proteinases” value in test [6], in test [7], in [8] and in [9] was “degrade” throughout.
